# Experimental data published in publication PMC10813753 (Biology, 2024).
# Values joined by “and” are separate entries in the source; they are usually repeats but may differ in a detail not shown here. Identical values can stand only once.
# How the values were obtained:
# [1] = system: RWPE-1 cells (healthy prostate); assay: MTT viability assay RWPE-1; format: cell-based, human; conditions: 72 h
# Protocol: (§1) A panel of five tumor cell lines and two normal cell lines was used to preliminarily test the cytotoxicity of compounds 1–4, and the experiments were conducted as previously reported. All human cell lines were acquired from American Type Culture Collection (ATCC): tumor PC-3 and DU145 (prostate), HeLa (cervix), MCF7 (breast) and HT29 (colorectal) and healthy HFF-1 (fibroblast) and RWPE-1 (prostate). The cell catalogue reference and culture media used in the experiments were CRL-1435^TM, RPMI (PC-3), HTB-81™, RPMI (DU145), CCL-2^TM, DMEM (HeLa), HTB-22^TM, DMEM (MCF-7), HTB-38^TM, modified McCoy’s 5a medium, Catalogue No. 30-2007 (HT29), SCRC-1041^TM, DMEM (HFF-1) and CRL-11609^TM, Keratinocyte-SFM (RWPE-1). Culture media were purchased from Merck: RPMI-1640, DMEM + 10% FBS (Fetal Bovine Serum) + […] (penicillin/streptomycin/amphotericin B). Media and supplements for RWPE-1 were from ThermoFisher (17005075, Madrid, Spain). MCF7 cells were additionally supplemented with insulin (0.001 mg/mL in 500 mL media). Cells were kept at 37 °C (5% CO2), and culture media were renewed three times per week. When the cells reached 80–100% confluence, they were trypsinized and centrifuged, and the concentration was adjusted to each experiment. Cells were seeded at a density of ~10,000 cells/well into 24-well plates. The cells were treated with ligands 1–4 or the cytotoxic agents PhenQE8, PhenDC3 or cisplatin at different concentrations (10 nM–100 μM). Compound solutions were freshly prepared using the appropriate culture medium. Triplicate experiments were run. For MTT viability assays, after 72 h incubation, 50 μL of MTT (5 mg/mL) was added, and an additional incubation of 4 h was allowed. The medium in each well was then replaced by DMSO, and the absorbance was measured at 570 nm using an ELISA plate reader. Absorbances were normalized using negative controls (untreated cells, in triplicate, with a maximum of 0.9% DMSO content). Dose–response curves were obtained by plotting the percentage of viable cells versus logarithmic compound concentration. IC50 values were determined using Kaleidagragh^TM (3.52) software by adjusting the data to Equation 1/(1 + 10^(m2*(log(m1) − x))); m1 = 0.000003; m2 = 1.
# [2] = system: MCF-7 cells (breast); assay: MTT viability assay MCF-7; format: cell-based, human; conditions: 72 h
# Protocol: as §1
# [3] = system: HFF-1 cells (healthy fibroblasts); assay: MTT viability assay HFF-1; format: cell-based, human; conditions: 72 h
# Protocol: as §1
# [4] = system: ds17 duplex DNA; assay: Equilibrium dialysis (non-competition and competition), ds17; format: binding; conditions: for Kapp (ds17): 10 mM potassium phosphate, 100 mM KCl, pH 7.2
# Protocol: Equilibrium dialysis experiments were conducted with unlabeled quadruplex DNA and/or with dsDNA sequences as previously reported. G4 sequence Tel22 is 5′-A(GGGTTA)3GGG-3′, and ds17 is 5′-GGG TTA CTA CGA ACT GG-3′/5′-CCA GTT CGT AGT AAC CC-3′. The buffering system employed contained 10 mM potassium phosphate buffer and 100 mM of KCl (pH = 7.2). DNA solution concentrations were determined at 90 °C through UV-visible spectrophotometry using the λmax values and extinction coefficients provided by IDT®. Extinction coefficients of TSC ligand 1 were calculated in water and in buffer in the absence and in the presence of 1% (w/v) triton X-100. Competition and non-competition dialysis experiments were carried out using the protocol described by Chaires, with minor modifications. Dialysis bags (Biotech Regenerated Cellulose (RC) membrane, part number 133192, Spectrum Laboratories, Inc., Fisher, Madrid, Spain) with a 0.2 mL volume were used, with G4 Tel22 or duplex ds17 DNA at a concentration of 75 μM, in monomeric units. The dialysis bags were placed in a beaker containing 200 mL of a solution of compound 1 (2 μM) in buffer. The beaker was sealed with Parafilm, and the solution was allowed to equilibrate at room temperature (22 °C) for 24 h with continuous stirring. […] After 2 h equilibration at room temperature, the total concentration of the ligand (Ct) was determined using UV-visible spectroscopy. The concentration of free compound 1 (Cf) was also determined spectrophotometrically from the dialysate solution. The concentration of the DNA-bound compound (Cb) was then calculated using the equation Cb = Ct − Cf, and Kapp was determined.
# Assays were performed at room temperature with ~2 μM solutions of 1, equilibrated with 75 μM (in monomeric units, tetrads or base pairs, respectively) of the tested DNA sequence for 24 h, in a buffer containing 100 mM KCl. […] The concentration of DNA-bound ligand was determined based on at least two different experiments performed in duplicate or triplicate. […]
# [5] = system: HT29 cells (colorectal); assay: MTT viability assay HT29; format: cell-based, human; conditions: 72 h
# Protocol: as §1, with “Dose–response curves were obtained by plotting the percentage of viable cells versus logarithmic compound concentration.” left out
# [6] = system: PC-3 cells (prostate tumor); assay: MTT viability assay PC-3; format: cell-based, human; conditions: for selectivity index (SI), prostate tumor PC3 versus prostate non-tumor RWPE-1: from MTT IC50 values
# Protocol: as §1
# [7] = system: HeLa cells (cervix); assay: MTT viability assay HeLa; format: cell-based, human; conditions: 72 h
# Protocol: as §1
# [8] = system: DU145 cells (prostate tumor); assay: MTT viability assay DU145; format: cell-based, human; conditions: 72 h
# Protocol: as §1
# [9] = system: HeLa cells; assay: Annexin V/PI FITC apoptosis assay, HeLa; format: cell-based, human; conditions: 20 μM, 48 h, in comparison to untreated cells
# Protocol: For the Annexin V apoptosis experiments, approximately half of the cells used in combined experiments with cell cycle analysis were harvested via trypsinization, PBS washed and stained with the Annexin-V FITC & PI kit (Invitrogen^TM ref. V 13242, Thermo Fisher, Madrid, Spain) following a standard protocol. A total of 10,000 events were recorded, and the results obtained by flow cytometry were represented as dot plots.
# [10] = system: G4 Tel22 telomeric quadruplex DNA; assay: Equilibrium dialysis (non-competition and competition), Tel22; format: binding, human; conditions: for Kapp (Tel22): 10 mM potassium phosphate, 100 mM KCl, pH 7.2
# Protocol: Equilibrium dialysis experiments were conducted with unlabeled quadruplex DNA and/or with dsDNA sequences as previously reported. G4 sequence Tel22 is 5′-A(GGGTTA)3GGG-3′, and ds17 is 5′-GGG TTA CTA CGA ACT GG-3′/5′-CCA GTT CGT AGT AAC CC-3′. The buffering system employed contained 10 mM potassium phosphate buffer and 100 mM of KCl (pH = 7.2). DNA solution concentrations were determined at 90 °C through UV-visible spectrophotometry using the λmax values and extinction coefficients provided by IDT®. Extinction coefficients of TSC ligand 1 were calculated in water and in buffer in the absence and in the presence of 1% (w/v) triton X-100. Competition and non-competition dialysis experiments were carried out using the protocol described by Chaires, with minor modifications. Dialysis bags (Biotech Regenerated Cellulose (RC) membrane, part number 133192, Spectrum Laboratories, Inc., Fisher, Madrid, Spain) with a 0.2 mL volume were used, with G4 Tel22 or duplex ds17 DNA at a concentration of 75 μM, in monomeric units. The dialysis bags were placed in a beaker containing 200 mL of a solution of compound 1 (2 μM) in buffer. The beaker was sealed with Parafilm, and the solution was allowed to equilibrate at room temperature (22 °C) for 24 h with continuous stirring. Then, the contents of the dialysis bags were transferred into microcentrifuge tubes, and triton X-100 was added (1% (w/v) final concentration). After 2 h equilibration at room temperature, the total concentration of the ligand (Ct) was determined using UV-visible spectroscopy. The concentration of free compound 1 (Cf) was also determined spectrophotometrically from the dialysate solution. The concentration of the DNA-bound compound (Cb) was then calculated using the equation Cb = Ct − Cf, and Kapp was determined.
# Assays were performed at room temperature with ~2 μM solutions of 1, equilibrated with 75 μM (in monomeric units, tetrads or base pairs, respectively) of the tested DNA sequence for 24 h, in a buffer containing 100 mM KCl. Afterwards, the surfactanct triton X-100 was added to the solutions contained in the dialysis bags, and the recording of the UV-visible spectra was used to determine the concentrations of free and DNA-bound ligands for each situation: Tel22, ds17 or competition experiment Tel22-ds17. The concentration of DNA-bound ligand was determined based on at least two different experiments performed in duplicate or triplicate. […]
# [11] = competition dialysis (1 + Tel22 + ds17)
# [12] = order of magnitude, equilibrium dialysis
substance,measurement,setting,value
"2,2′-(1,10-Phenanthroline-2,9-diyl)-bis(methylene)-bis(hydrazine-1-carbothioamide) [compound 1]",IC50,[1],90.8 ± 8.8 µM
same,IC50,[2],78.4 ± 11 µM
same,IC50,[3],74.4 ± 3.1 µM
same,Kapp (ds17),[4]; [11],0.05 ± 0.01 (M^−1) × 10^−5
same,Kapp (ds17),[4]; non-competition dialysis (1 + ds17),0.06 ± 0.01 (M^−1) × 10^−5
same,apparent association constant to dsDNA ds17,[4]; [12],~10^3 M^−1 and ~ 5 × 10^3 M^−1
same,IC50,[5],> 100 µM
same,IC50,"[6]; MTT, 72 h",18 µM and 18.4 µM
same,"selectivity index (SI), prostate tumor PC3 versus prostate non-tumor RWPE-1",[6],5
same,"selectivity index (SI), prostate tumor PC3 versus prostate non-tumor RWPE-1",[6]; listed as neutral derivative,~ 5
same,IC50,[7],~100 µM
same,IC50,[8],62.2 ± 5.9 µM
same,increase in the number of early apoptotic and late apoptotic cells,[9],20–25%
same,Kapp (Tel22),[10]; [11],1.2 ± 0.1 (M^−1) × 10^−5
same,binding selectivity Kapp (Tel22)/Kapp (ds17),[10]; competitive assay,~24 fold
same,Kapp (Tel22),"[10]; non-competition dialysis (1 + Tel22), apparent association constant, order 10^5 M^−1",1.1 ± 0.1 (M^−1) × 10^−5
same,apparent association constant to telomeric quadruplex,[10]; [12],~10^5 M^−1
